One assay has as its target T1, Androgen receptor (Rattus norvegicus, UniProt P15207).
T1 sequence (P15207 whole entry): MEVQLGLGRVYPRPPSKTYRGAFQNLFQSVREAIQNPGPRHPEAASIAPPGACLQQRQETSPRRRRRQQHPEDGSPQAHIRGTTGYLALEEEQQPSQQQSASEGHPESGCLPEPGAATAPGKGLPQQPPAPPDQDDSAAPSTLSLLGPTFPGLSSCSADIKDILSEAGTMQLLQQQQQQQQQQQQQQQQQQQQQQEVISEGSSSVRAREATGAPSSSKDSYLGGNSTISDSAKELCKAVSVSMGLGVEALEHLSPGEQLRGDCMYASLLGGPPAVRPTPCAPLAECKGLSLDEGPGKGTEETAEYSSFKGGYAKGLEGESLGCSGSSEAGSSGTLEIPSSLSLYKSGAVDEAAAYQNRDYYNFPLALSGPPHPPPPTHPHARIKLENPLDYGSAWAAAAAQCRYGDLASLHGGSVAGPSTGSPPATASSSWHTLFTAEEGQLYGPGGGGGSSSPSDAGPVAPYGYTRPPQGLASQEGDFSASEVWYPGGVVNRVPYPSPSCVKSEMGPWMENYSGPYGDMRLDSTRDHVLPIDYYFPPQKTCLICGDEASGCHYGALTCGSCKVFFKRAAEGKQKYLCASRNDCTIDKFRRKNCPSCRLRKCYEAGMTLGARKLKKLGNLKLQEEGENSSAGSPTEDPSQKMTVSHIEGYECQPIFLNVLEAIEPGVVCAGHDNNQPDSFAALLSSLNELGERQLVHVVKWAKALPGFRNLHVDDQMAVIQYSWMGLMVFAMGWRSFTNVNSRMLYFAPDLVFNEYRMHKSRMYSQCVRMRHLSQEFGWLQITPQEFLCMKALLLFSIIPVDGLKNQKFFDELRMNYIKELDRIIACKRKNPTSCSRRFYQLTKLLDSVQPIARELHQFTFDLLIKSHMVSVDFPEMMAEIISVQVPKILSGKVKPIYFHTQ

For a further assay, the target named is T2, Thromboxane A2 receptor (Homo sapiens, UniProt P21731).
T2 sequence (P21731 whole entry): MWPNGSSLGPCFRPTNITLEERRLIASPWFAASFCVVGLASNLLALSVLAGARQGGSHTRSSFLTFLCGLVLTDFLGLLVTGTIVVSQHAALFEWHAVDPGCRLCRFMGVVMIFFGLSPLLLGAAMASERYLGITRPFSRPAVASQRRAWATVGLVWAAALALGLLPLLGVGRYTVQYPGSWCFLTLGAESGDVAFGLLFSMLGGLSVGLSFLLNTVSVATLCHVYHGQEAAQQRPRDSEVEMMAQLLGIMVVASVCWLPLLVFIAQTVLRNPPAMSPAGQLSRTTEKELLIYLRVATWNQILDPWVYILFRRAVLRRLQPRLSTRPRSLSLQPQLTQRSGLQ
It counts as functional, cell-based.

Assay [1] deals with T3, Muscarinic acetylcholine receptor M2 (Homo sapiens, UniProt P08172).
T3 sequence (P08172 whole entry): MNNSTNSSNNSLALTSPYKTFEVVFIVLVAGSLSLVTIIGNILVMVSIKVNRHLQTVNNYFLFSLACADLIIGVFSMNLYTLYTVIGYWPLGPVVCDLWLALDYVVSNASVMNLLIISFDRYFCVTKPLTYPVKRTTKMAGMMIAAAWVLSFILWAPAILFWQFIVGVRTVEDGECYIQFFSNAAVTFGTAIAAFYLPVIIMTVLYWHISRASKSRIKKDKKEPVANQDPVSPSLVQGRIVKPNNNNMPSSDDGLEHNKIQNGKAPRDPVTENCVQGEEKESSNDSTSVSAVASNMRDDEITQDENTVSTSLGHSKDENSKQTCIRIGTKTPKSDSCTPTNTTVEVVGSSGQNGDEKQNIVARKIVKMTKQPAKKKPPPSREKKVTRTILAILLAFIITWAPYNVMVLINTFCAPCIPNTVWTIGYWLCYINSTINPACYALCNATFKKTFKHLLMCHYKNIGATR

Assay [2] has as its target Beta-3 adrenergic receptor (Homo sapiens, UniProt P13945).
The target of assay [3] is T4, Corticotropin-releasing factor receptor 2 (Homo sapiens, UniProt Q13324).
T4 sequence (Q13324 whole entry): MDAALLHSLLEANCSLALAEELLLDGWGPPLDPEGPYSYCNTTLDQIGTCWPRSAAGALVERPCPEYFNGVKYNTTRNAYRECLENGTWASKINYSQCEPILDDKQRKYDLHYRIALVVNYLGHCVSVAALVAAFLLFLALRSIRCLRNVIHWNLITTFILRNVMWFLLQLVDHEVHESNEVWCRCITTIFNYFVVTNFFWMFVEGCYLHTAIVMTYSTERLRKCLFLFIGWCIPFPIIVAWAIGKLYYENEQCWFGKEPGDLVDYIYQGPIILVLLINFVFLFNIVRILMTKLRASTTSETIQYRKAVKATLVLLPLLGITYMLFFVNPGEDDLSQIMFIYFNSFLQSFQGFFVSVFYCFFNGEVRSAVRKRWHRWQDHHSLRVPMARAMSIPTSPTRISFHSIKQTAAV

Assay [4] deals with T5, Muscarinic acetylcholine receptor M1 (Homo sapiens, UniProt P11229).
T5 sequence (P11229 whole entry): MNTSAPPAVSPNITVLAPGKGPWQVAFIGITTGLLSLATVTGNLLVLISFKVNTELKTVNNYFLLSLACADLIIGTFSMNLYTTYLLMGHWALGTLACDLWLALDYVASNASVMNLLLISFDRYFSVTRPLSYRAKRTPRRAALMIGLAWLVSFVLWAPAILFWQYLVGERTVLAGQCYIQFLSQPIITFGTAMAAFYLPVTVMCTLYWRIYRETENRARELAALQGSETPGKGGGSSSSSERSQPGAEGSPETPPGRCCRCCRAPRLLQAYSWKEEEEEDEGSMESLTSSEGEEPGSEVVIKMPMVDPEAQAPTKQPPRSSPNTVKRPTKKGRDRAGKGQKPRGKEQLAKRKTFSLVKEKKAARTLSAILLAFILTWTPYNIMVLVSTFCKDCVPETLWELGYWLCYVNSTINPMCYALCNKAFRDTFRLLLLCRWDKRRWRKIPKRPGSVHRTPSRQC

For 25 molecules, AC50 results are on record in ChEMBL document CHEMBL5291721, “A preclinical secondary pharmacology resource illuminates target-adverse drug reaction associations of marketed drugs” (Nat Commun, 2023).

Where only a bound is given, the exact number is not on record here.
Note: assay procedure not described here.

Sequence of Beta-3 adrenergic receptor (P13945 whole entry): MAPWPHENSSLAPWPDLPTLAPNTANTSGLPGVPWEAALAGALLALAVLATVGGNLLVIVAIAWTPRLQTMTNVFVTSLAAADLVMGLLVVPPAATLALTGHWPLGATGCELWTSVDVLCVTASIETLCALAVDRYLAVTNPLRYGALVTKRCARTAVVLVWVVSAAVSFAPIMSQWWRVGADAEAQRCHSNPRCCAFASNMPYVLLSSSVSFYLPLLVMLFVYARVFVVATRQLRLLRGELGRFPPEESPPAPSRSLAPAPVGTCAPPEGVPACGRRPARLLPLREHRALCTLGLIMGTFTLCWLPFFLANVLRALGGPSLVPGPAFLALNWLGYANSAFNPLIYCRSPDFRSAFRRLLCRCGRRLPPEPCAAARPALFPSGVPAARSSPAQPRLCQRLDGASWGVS

Usually AC50 stands for the concentration giving half of the maximal activity seen. Read a low AC50 as activity at low concentration. As for `C=CC1=C(C(=O)O)N2C(=O)[C@@H](NC(=O)/C(=N\O)c3csc(N)n3)[C@H]2SC1`, the AC50 on Androgen receptor is above 30 µM.

On to `CO[C@@H]1[C@@H](OC(N)=O)[C@@H](O)[C@H](Oc2ccc3c(O)c(NC(=O)c4ccc(O)c(CC=C(C)C)c4)c(=O)oc3c2C)OC1(C)C` [NOVOBIOCIN], for which, at Thromboxane A2 receptor, the AC50 was above 30 µM.

On Thromboxane A2 receptor, `C[C@@H](O)[C@H]1C(=O)N2C(C(=O)O)=C(SCCN=CN)C[C@H]12` [IMIPENEM ANHYDROUS] yielded an AC50 above 300 µM.

Take `C[C@]12CCC(=O)C=C1CC[C@H]1[C@@H]3CC[C@](O)(C(=O)CO)[C@@]3(C)C[C@H](O)[C@@]12F` [FLUDROCORTISONE]: the AC50 in assay [1] was above 10 µM; in assay [2], above 30 µM; in assay [3], above 30 µM.

In turn, `c1cnc2cc3c(cc2n1)[C@@H]1CNC[C@H]3C1` [VARENICLINE] had an AC50 at Thromboxane A2 receptor above 30 µM.

In turn, `Cn1cnc2c(F)c(Nc3ccc(Br)cc3F)c(C(=O)NOCCO)cc21` [BINIMETINIB] had an AC50 at Thromboxane A2 receptor above 30 µM.

In the case of `Cc1c(C)c2c(c(C)c1O)CCC(C)(COc1ccc(CC3SC(=O)NC3=O)cc1)O2` (stereo not given) [TROGLITAZONE], the AC50 in assay [2] was above 30 µM; on Androgen receptor, 3.57 µM; in assay [3], above 30 µM.

Take `CN(C)CCC=C1c2ccccc2CCc2ccccc21` [AMITRIPTYLINE]: the AC50 (in assay [2]; at Thromboxane A2 receptor; in assay [3]) was above 30 µM throughout.

In the case of `CC(=O)Oc1ccccc1C(=O)O` [ASPIRIN], the AC50 (in assay [2]; on Androgen receptor; at Thromboxane A2 receptor; in assay [3]) was above 30 µM each time.

Regarding `CN(C)CCCC1(c2ccc(F)cc2)OCc2cc(C#N)ccc21` (stereo not given) [CITALOPRAM], the AC50 in assay [2] and in assay [3] was above 30 µM throughout.

`C[C@H](Nc1ncnc2[nH]cnc12)c1cc2cccc(Cl)c2c(=O)n1-c1ccccc1` [DUVELISIB] displayed an AC50 in assay [4] above 30 µM.

Molecule `O=C(O)[C@@H](S)[C@@H](S)C(=O)O` returned an AC50 in assay [4] above 30 µM.

For the molecule `CC#CC(=O)N1CCC[C@H]1c1nc(-c2ccc(C(=O)Nc3ccccn3)cc2)c2c(N)nccn12` [ACALABRUTINIB], in assay [4], the AC50 was above 30 µM.

With `C#CCN(C)Cc1ccccc1` [PARGYLINE], the AC50 in assay [4] is above 30 µM.

Turning to `CCOC(=O)[C@H](CCc1ccccc1)N[C@@H](C)C(=O)N1Cc2ccccc2C[C@H]1C(=O)O`, the AC50 in assay [1] was above 10 µM; in assay [2] it was above 30 µM; in assay [3], above 30 µM.

Consider `CCCCCCO[C@@H](C)c1cccc(-c2csc(NC(=O)c3cc(Cl)c(/C=C(\C)C(=O)O)c(Cl)c3)n2)c1OC` [LUSUTROMBOPAG], for which, in assay [4], the AC50 was above 30 µM.

For `O=C(Cc1cccs1)N[C@@H]1C(=O)N2C(C(=O)[O-])=C(C[n+]3ccccc3)CS[C@H]12` [CEPHALORIDINE], in assay [4], the AC50 was above 30 µM.

As to `OCCOCCN1CCN(C(c2ccccc2)c2ccc(Cl)cc2)CC1` (stereo not given) [HYDROXYZINE], the AC50 in assay [1] was 9.04 µM; in assay [2], above 30 µM; in assay [3] it was above 30 µM.

Regarding `CC(=O)SCC(Cc1ccccc1)C(=O)NCC(=O)OCc1ccccc1` (stereo not given) [RACECADOTRIL], the AC50 in assay [1] was above 10 µM; in assay [2] it was above 30 µM.

As to `Nc1c2c(nc3ccccc13)CCCC2O` (stereo not given) [VELNACRINE], the AC50 on Thromboxane A2 receptor was above 30 µM.

At Androgen receptor, `O=C(O)COC(=O)Cc1ccccc1Nc1c(Cl)cccc1Cl` [ACECLOFENAC] returned an AC50 above 30 µM.

Take `NCC1(CC(=O)O)CCCCC1` [GABAPENTIN]: the AC50 in assay [1] is above 10 µM; in assay [2], above 30 µM; on Thromboxane A2 receptor, above 30 µM; in assay [3], above 30 µM.

Molecule `C[C@H](CS)C(=O)N1CCC[C@H]1C(=O)O` [CAPTOPRIL] showed an AC50 on Androgen receptor above 30 µM.

On Androgen receptor, `C[C@H](Cn1cnc2c(N)ncnc21)OCP(=O)(O)O` [TENOFOVIR ANHYDROUS] registered an AC50 above 30 µM.

As to `Nc1nnc(-c2cccc(Cl)c2Cl)c(N)n1` [LAMOTRIGINE], the results for the concentration at half-maximal activity (AC50) in assay [1], in assay [2] and in assay [3] were above 10 µM, above 30 µM and above 30 µM, respectively.
